The term TGI denotes the concentration at which net growth stops. Usually GI50 stands for the concentration that inhibits growth by half.

The results in this text go back to PubChem BioAssay (NCI).

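Cultured in 96-well plates, cells were exposed to test compound for 48 hours across five concentrations. At the GI50, growth is halved. TGI marks complete inhibition of growth.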

Some test systems named below: A549 NSCLC; CAKI-1 renal; IGROV1 ovarian; NCI-H460 lung; OVCAR-8 ovarian; PC-3 prostate; SK-MEL-28 melanoma; SN12C renal; T-47D breast; NCI/ADR-RES ovarian.
What all share (test): DTP human tumour cell line panel, 48 h

For the molecule `Clc1ccc2ns[s+]c2c1`, the TGI in the assay with A549 NSCLC, in the assay with CAKI-1 renal, in the assay with IGROV1 ovarian, in the assay on NCI-H460 lung, with OVCAR-8 ovarian and in the assay on PC-3 prostate was above 100 µM throughout. Also, the TGI in the assay with SK-MEL-28 melanoma is above 100 µM; in the assay with SN12C renal, above 100 µM; with T-47D breast, 92 µM.

Turning to `COC(=O)c1ccc(CN2C(=O)C(Cl)=C(Nc3ccc(OC)c(Cl)c3)C2=O)cc1`, the GI50 with A549 NSCLC was 26.2 µM; in the assay on CAKI-1 renal, 17.3 µM; in the assay on IGROV1 ovarian, 10.6 µM; with NCI-H460 lung, 14.8 µM; in the assay with NCI/ADR-RES ovarian, 12.7 µM; in the assay on OVCAR-8 ovarian, 23.8 µM. Besides, the GI50 was 44.3 µM with PC-3 prostate, 8.48 µM with SK-MEL-28 melanoma and 9.04 µM with SN12C renal. The TGI was above 50 µM in the assay with A549 NSCLC; above 50 µM with CAKI-1 renal; above 50 µM in the assay on IGROV1 ovarian; above 50 µM in the assay with NCI-H460 lung; 30.9 µM with NCI/ADR-RES ovarian; above 50 µM in the assay with OVCAR-8 ovarian. The TGI in the assay on PC-3 prostate is above 50 µM; with SK-MEL-28 melanoma, 30.7 µM; with SN12C renal, 33.7 µM.

In the case of `CC[C@]1(O)C[C@@H]2CN(CCc3c([nH]c4ccccc34)[C@@](C(=O)OC)(c3cc4c(cc3OC)N(C)[C@H]3[C@@](O)(C(N)=O)[C@H](O)[C@]5(CC)[C@@H]6C[C@@H]6CN6CC[C@]43[C@@H]65)C2)C1`, the GI50 is 0.0128 µM with A549 NSCLC; 1.12 µM in the assay with CAKI-1 renal; 0.0172 µM in the assay on IGROV1 ovarian; 0.00366 µM in the assay with NCI-H460 lung; 0.745 µM in the assay on NCI/ADR-RES ovarian; 0.0143 µM with OVCAR-8 ovarian. Moreover, the GI50 is below 0.00333 µM in the assay with PC-3 prostate, 6.47 µM in the assay with SK-MEL-28 melanoma and 0.0373 µM in the assay on SN12C renal. Besides, the TGI is above 33.3 µM in the assay on A549 NSCLC; above 33.3 µM with CAKI-1 renal; above 33.3 µM with IGROV1 ovarian; above 33.3 µM in the assay on NCI-H460 lung; above 9.84 µM with NCI/ADR-RES ovarian; above 33.3 µM with OVCAR-8 ovarian. For the same molecule, the TGI in the assay on PC-3 prostate, in the assay on SK-MEL-28 melanoma and with SN12C renal was above 33.3 µM in each case.

Take `CC1(C)C(=O)C=CC2(C)C1CC(O)C1(C)C2CCC2(C)C(c3ccoc3)OC(=O)C3OC321` (stereo unspecified): the TGI with A549 NSCLC is 69.8 µM; with CAKI-1 renal, 31.4 µM; with IGROV1 ovarian, 33.9 µM; with NCI-H460 lung, 27.6 µM; with NCI/ADR-RES ovarian it was 30.5 µM; with OVCAR-8 ovarian it was 26.8 µM. Further, the TGI in the assay with PC-3 prostate was above 100 µM; with SK-MEL-28 melanoma, 70.3 µM; in the assay on SN12C renal, 37.4 µM.

In the case of `CC1(O)CCC2(C)C(=O)C1(C)CCC21OCCO1` (stereo unspecified), the TGI with A549 NSCLC, in the assay with IGROV1 ovarian, in the assay with NCI-H460 lung, in the assay on OVCAR-8 ovarian, in the assay with SK-MEL-28 melanoma and in the assay on SN12C renal was above 100 µM in each case.

Turning to `Cc1c(Cl)cccc1NC(=O)/C(Cl)=C(\Cl)C(=O)O`, the TGI in the assay with A549 NSCLC is 38.9 µM; in the assay with CAKI-1 renal, 33.9 µM; in the assay on IGROV1 ovarian, 35.7 µM; in the assay on NCI-H460 lung, above 100 µM; with SK-MEL-28 melanoma, 35.4 µM; with SN12C renal, 31.2 µM.

Turning to `CCC[CH2][Sn]1([CH2]CCC)[O]C(=O)c2ccc(N)cc2[O]1`, the GI50 was 2.62 µM in the assay with A549 NSCLC; 0.119 µM with CAKI-1 renal; 1.51 µM in the assay on IGROV1 ovarian; 1.73 µM in the assay on NCI-H460 lung; 1.76 µM in the assay on NCI/ADR-RES ovarian; 0.909 µM with OVCAR-8 ovarian. Besides, the GI50 in the assay on PC-3 prostate is 0.985 µM; with SK-MEL-28 melanoma, 0.397 µM; with SN12C renal, 0.88 µM. Moreover, the TGI in the assay on A549 NSCLC was determined as 7.4 µM; with CAKI-1 renal, 1.27 µM; in the assay with IGROV1 ovarian, 2.97 µM; in the assay with NCI-H460 lung, 4.21 µM; in the assay with NCI/ADR-RES ovarian it was 4.12 µM; in the assay on OVCAR-8 ovarian it was 2.49 µM. The TGI with PC-3 prostate worked out at 2.23 µM; in the assay on SK-MEL-28 melanoma, 1.48 µM; in the assay with SN12C renal it was 2.37 µM.

As to `O=C1CCN2CCC(=O)c3c2c(cc2ccccc32)N1`, the TGI in the assay on A549 NSCLC, in the assay on CAKI-1 renal, in the assay with IGROV1 ovarian, in the assay with NCI-H460 lung, in the assay on OVCAR-8 ovarian and in the assay with SN12C renal was above 100 µM throughout.

Regarding `COc1c(Sc2ccccc2)cc(Sc2ccccc2)c2cccnc12`, the TGI is above 100 µM in the assay with A549 NSCLC; 70.7 µM in the assay on CAKI-1 renal; above 100 µM in the assay with IGROV1 ovarian; 54.5 µM in the assay on NCI-H460 lung; above 100 µM in the assay on OVCAR-8 ovarian; above 100 µM with SK-MEL-28 melanoma. The molecule also returned a TGI in the assay with SN12C renal of 97.6 µM.

With `CCOC(=O)C1=C(Nc2ccc(Cl)c(Cl)c2)OC/C1=N\NC(=O)Cc1ccccc1`, the TGI in the assay with A549 NSCLC, in the assay with CAKI-1 renal, in the assay with IGROV1 ovarian, in the assay on NCI-H460 lung, in the assay on OVCAR-8 ovarian and with SK-MEL-28 melanoma was above 100 µM each time. Moreover, the TGI with SN12C renal was above 100 µM.

Turning to `COC(=O)C(CC(=O)c1c[nH]c2ccccc12)c1c[nH]c2ccccc12` (stereo unspecified), the TGI is 60.1 µM in the assay on A549 NSCLC; 70.8 µM in the assay with CAKI-1 renal; above 10 µM in the assay with IGROV1 ovarian; 37.9 µM in the assay on NCI-H460 lung; 65 µM in the assay with OVCAR-8 ovarian; 42.1 µM in the assay on SK-MEL-28 melanoma.

With `Clc1ccc2c(c1)[nH]c1c2nc2sccn21`, the TGI in the assay on A549 NSCLC, with CAKI-1 renal, in the assay on IGROV1 ovarian, in the assay on NCI-H460 lung, in the assay with OVCAR-8 ovarian and in the assay on SK-MEL-28 melanoma was above 100 µM each time. The TGI in the assay on SN12C renal is above 100 µM.

Regarding `Cc1c(C(=O)CC(=O)C(=O)Nc2cc(Cl)ccc2Cl)[n+](=O)c2ccccc2n1[O-]`, the TGI in the assay on A549 NSCLC was above 100 µM; in the assay with CAKI-1 renal it was above 100 µM; in the assay on IGROV1 ovarian, above 100 µM; in the assay with NCI-H460 lung, 99.5 µM; in the assay on OVCAR-8 ovarian, above 100 µM; with SK-MEL-28 melanoma, above 100 µM. Moreover, the TGI in the assay on SN12C renal is above 100 µM.

Turning to `COc1ccccc1NC(=O)C1=C(C)NC(C)=C(C(=O)Nc2ccccc2OC)C1c1ccc(N(C)C)cc1`, the TGI in the assay with A549 NSCLC was above 100 µM; with CAKI-1 renal, 89.1 µM; in the assay on IGROV1 ovarian it was above 100 µM; in the assay on NCI-H460 lung it was above 100 µM; in the assay with OVCAR-8 ovarian, 77.3 µM; in the assay on SK-MEL-28 melanoma it was 58 µM. This molecule displayed a TGI in the assay with SN12C renal above 100 µM.
